Source: publication PMC7468911 (Nutrients, 2020)

biological target: T1, ABCC11 (Homo sapiens, UniProt Q96J66); test: cell-based; conditions: read-out: ABCC11-Mediated DHEA-S Transport (% of Control)
T1 construct: full-length human ABCC11 WT
T1 sequence (Q96J66 whole entry): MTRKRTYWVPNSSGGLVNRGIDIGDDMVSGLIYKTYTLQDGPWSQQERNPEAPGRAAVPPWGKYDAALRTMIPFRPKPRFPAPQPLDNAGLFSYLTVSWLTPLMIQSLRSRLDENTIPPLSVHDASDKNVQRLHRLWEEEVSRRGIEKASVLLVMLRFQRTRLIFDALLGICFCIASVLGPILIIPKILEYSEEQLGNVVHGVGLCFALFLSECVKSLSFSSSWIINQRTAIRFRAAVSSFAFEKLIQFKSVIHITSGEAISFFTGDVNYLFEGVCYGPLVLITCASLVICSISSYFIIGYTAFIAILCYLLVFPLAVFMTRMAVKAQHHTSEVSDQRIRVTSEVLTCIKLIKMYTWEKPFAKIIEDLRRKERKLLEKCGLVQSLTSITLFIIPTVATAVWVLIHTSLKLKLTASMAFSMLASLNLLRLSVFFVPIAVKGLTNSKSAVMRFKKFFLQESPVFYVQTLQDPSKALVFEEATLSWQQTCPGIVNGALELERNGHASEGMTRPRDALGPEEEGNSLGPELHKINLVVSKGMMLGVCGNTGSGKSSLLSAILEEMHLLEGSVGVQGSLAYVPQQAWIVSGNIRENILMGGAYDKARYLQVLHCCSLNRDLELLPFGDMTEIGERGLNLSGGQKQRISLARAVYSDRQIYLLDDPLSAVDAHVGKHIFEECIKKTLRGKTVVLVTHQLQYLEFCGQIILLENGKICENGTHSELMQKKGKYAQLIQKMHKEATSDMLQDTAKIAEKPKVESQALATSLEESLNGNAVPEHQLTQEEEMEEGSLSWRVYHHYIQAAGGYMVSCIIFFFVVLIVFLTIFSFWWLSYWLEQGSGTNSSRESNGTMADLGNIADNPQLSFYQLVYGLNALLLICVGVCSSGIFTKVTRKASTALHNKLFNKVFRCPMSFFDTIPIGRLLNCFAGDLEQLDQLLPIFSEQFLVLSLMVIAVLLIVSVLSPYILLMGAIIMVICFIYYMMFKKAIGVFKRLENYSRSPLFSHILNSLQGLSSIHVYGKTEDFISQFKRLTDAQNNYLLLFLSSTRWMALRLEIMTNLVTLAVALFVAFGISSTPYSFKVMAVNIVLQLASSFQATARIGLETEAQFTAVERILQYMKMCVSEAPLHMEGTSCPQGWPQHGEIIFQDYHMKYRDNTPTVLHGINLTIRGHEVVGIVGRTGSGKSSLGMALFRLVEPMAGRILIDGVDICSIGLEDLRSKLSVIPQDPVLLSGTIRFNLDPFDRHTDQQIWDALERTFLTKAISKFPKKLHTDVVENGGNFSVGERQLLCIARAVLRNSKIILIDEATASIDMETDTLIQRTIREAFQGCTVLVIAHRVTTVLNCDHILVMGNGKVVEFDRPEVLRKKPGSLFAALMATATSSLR

How did the remaining activity at 100 µM turn out when `O=c1cc(-c2ccc(O)c(O)c2)oc2cc(O)cc(O)c12` [compound 4, luteolin] was run?
The remaining activity at 100 µM was 0%.

With `O=c1c(O)c(-c2ccc(O)c(O)c2)oc2cc(O)c(O)c(O)c12` [compound 16, quercetagetin] as the compound, how does the remaining activity at 100 µM read?
The remaining activity at 100 µM was 0%.

How did the remaining activity at 100 µM turn out when `O=C(CCc1ccc(O)cc1)c1c(O)cc(O)cc1O` [compound 20, phloretin] was run?
Its remaining activity at 100 µM is 0.6 ± 3.9%.

With `O=C(/C=C/c1ccc(O)cc1)c1c(O)cc(O)cc1O` [compound 19, naringenin chalcone] as the compound, how does the remaining activity at 100 µM read?
Its remaining activity at 100 µM is 12.4 ± 4.2%.

How did the remaining activity at 100 µM turn out when `COc1ccc(-c2cc(=O)c3c(OC)c(OC)c(OC)c(OC)c3o2)cc1OC` [compound 5, nobiletin] was run?
The remaining activity at 100 µM was 0%.

For `O=C(O[C@@H]1Cc2c(O)cc(O)cc2O[C@H]1c1ccc(O)c(O)c1)c1cc(O)c(O)c(O)c1` [compound 23, (−)-catechin gallate], which remaining activity at 100 µM is on record?
Its remaining activity at 100 µM is 10.5 ± 6%.

biological target: T1, ABCC11; test: inhibition of ATP-dependent [3H]-DHEA-S transport in plasma membrane vesicles from ABCC11-expressing […] cells; type: biochemical; conditions: not given

For `O=c1c(-c2ccc(O)cc2)coc2cc(O)cc(O)c12` [genistein], which IC50 is on record?
The IC50 was 61.5 µM.

biological target: T1, ABCC11; test: biochemical; parameters: Vesicle transport assay: ATP-dependent uptake of radiolabeled DHEA-S into ABCC11-expressing membrane vesicles, rapid filtration, scintillation counting; conditions: ABCC11-mediated DHEA-S transport, % of control, 5 min, 37 °C
Text: The inhibitory effects of the various target extracts and compounds on the ABCC11 function were examined using the in vitro vesicle transport assay, a well-established method to quantitatively evaluate ABC transporter function. For this purpose, the ATP-dependent transport of [1,2,6,7-^3H(N)]-dehydroepiandrosterone sulfate (DHEA-S) (PerkinElmer, Waltham, MA, USA), which is an ABCC11 substrate, into the ABCC11-expressing and control plasma membrane vesicles was quantified following our previous study with some minor modifications in the rapid filtration technique, as described below. In brief, the plasma membrane vesicles (0.25 mg/mL or indicated concentrations) were incubated with [1,2,6,7-^3H(N)]-DHEA-S (100 nM or indicated concentrations) in a reaction mixture (total 20 μL: 10 mM Tris/HCl, 250 mM sucrose, 10 mM MgCl2, 10 mM creatine phosphate, 1 mg/mL creatine phosphokinase, 50 mM ATP or AMP as a substitute of ATP, and pH 7.4) for 5 min at 37 °C, either without (i.e., with only vehicle control) or with the individual target fractions/authentic chemicals at the indicated concentrations. As the vehicle control, 1% water was used for plant extracts; 1% methanol (Nacalai Tesque) or 1% dimethyl sulfoxide (DMSO; Nacalai Tesque) was used for the individual target fractions, as described below. Since stock solutions of authentic chemicals were prepared with DMSO at 10 mM, 1% DMSO was employed as the vehicle control for them. After incubation, the reaction mixture was mixed with 980 μL of an ice-cold stop buffer (2 mM EDTA, 0.25 M sucrose, 0.1 M NaCl, 10 mM Tris-HCl, and pH 7.4) and rapidly filtered on a membrane filter (MF-Millipore Membrane (HAWP02500; Millipore, Tokyo, Japan) for extract screening or Whatman™ Grade GF/F Glass Microfiber Filter Paper (GE Healthcare) for the other experiments). After washing with 5 mL of the ice-cold stop buffer three times, the plasma membrane vesicles trapped on the membrane filter were dissolved in Clear-sol II (Nacalai Tesque). Then, the radioactivity incorporated into the plasma membrane vesicles was measured with a liquid scintillator (Tri-Carb 3110TR; PerkinElmer). The transport activity in each group was calculated as the incorporated clearance (μL/mg protein/min = incorporated level of DHEA-S (disintegrations per minute (DPM)/mg protein/min)/DHEA-S level in the incubation mixture (DPM/μL)). ATP-dependent DHEA-S transport was calculated by the difference in transport activity with and without ATP. Similarly, ABCC11-mediated DHEA-S transport activity was calculated by subtracting the ATP-dependent DHEA-S transport activity of control plasma membrane vesicles from that of ABCC11-expressing ones. Unless otherwise indicated, effects of the target fractions/compounds on the ATP-dependent DHEA-S transport activity were also examined for the control plasma membrane vesicles.

For `O=c1c(O)c(-c2ccc(O)c(O)c2)oc2cc(O)ccc12` [Fisetin], which remaining activity at 100 µM is on record?
The remaining activity at 100 µM was 37.7 ± 1%.

How did the remaining activity at 100 µM turn out when `O=c1c(O)c(-c2ccc(O)c(O)c2)oc2c(O)c(O)cc(O)c12` [Gossypetin] was run?
Its remaining activity at 100 µM is 46 ± 8.4%.

For `O=c1c(O)c(-c2ccc(O)c(O)c2)oc2cc(O)cc(O)c12` [Quercetin], which remaining activity at 100 µM is on record?
Its remaining activity at 100 µM is 34.6 ± 18.3%.

For `O=c1c(O)c(-c2ccc(O)cc2O)oc2cc(O)cc(O)c12` [Morin], which remaining activity at 100 µM is on record?
Its remaining activity at 100 µM is 41.5 ± 3.4%.

Which remaining activity at 100 µM does the source give for `O=C1C[C@@H](c2ccc(O)cc2)Oc2cc(O)cc(O)c21` [Naringenin] here?
The remaining activity at 100 µM was 38.4 ± 31.6%.

For `Oc1cc(O)c2c(c1)O[C@H](c1ccc(O)c(O)c1)[C@@H](O)C2` [(+)-Catechin], which remaining activity at 100 µM is on record?
Its remaining activity at 100 µM is 91.9 ± 5.9%.

With `O=C(O[C@@H]1Cc2c(O)cc(O)cc2O[C@@H]1c1cc(O)c(O)c(O)c1)c1cc(O)c(O)c(O)c1` [(−)-Epigallocatechin gallate] as the compound, how does the remaining activity at 100 µM read?
Its remaining activity at 100 µM is 37.5 ± 7%.

With `Oc1cc(O)c2c(c1)O[C@H](c1ccc(O)c(O)c1)[C@H](O)C2` [(−)-Epicatechin] as the compound, how does the remaining activity at 100 µM read?
Its remaining activity at 100 µM is 85.2 ± 24.4%.

Which remaining activity at 100 µM does the source give for `O=C(O[C@@H]1Cc2c(O)cc(O)cc2O[C@H]1c1cc(O)c(O)c(O)c1)c1cc(O)c(O)c(O)c1` [(−)-Gallocatechin gallate] here?
The remaining activity at 100 µM was 24 ± 2.5%.

For `Oc1cc(O)c2c(c1)O[C@H](c1cc(O)c(O)c(O)c1)[C@@H](O)C2` [(+)-Gallocatechin], which remaining activity at 100 µM is on record?
The remaining activity at 100 µM was 87.6 ± 27.6%.

With `O=C1c2c(O)cc(O)cc2O[C@H](c2cc(O)c(O)c(O)c2)[C@H]1O` [Dihydromyricetin] as the compound, how does the remaining activity at 100 µM read?
Its remaining activity at 100 µM is 56.9 ± 23.4%.

`O=c1c(O)c(-c2ccccc2)oc2ccccc12` [3-Hydroxyflavone] was tested. Which remaining activity at 100 µM did it give?
Its remaining activity at 100 µM is 91.7 ± 1.1%.

Which remaining activity at 100 µM does the source give for `Oc1cc(O)c2c(c1)O[C@H](c1cc(O)c(O)c(O)c1)[C@H](O)C2` [(−)-Epigallocatechin] here?
The remaining activity at 100 µM was 83.6 ± 29%.

With `COc1cc(O)c(CC=C(C)C)c(O)c1C(=O)/C=C/c1ccc(O)cc1` [Xanthohumol] as the compound, how does the remaining activity at 100 µM read?
Its remaining activity at 100 µM is 19.7 ± 13.6%.

Which remaining activity at 100 µM does the source give for `O=c1c(O)c(-c2ccccc2)oc2cc(O)cc(O)c12` [Galangin] here?
The remaining activity at 100 µM was 63.6 ± 5.9%.

With `O=C1c2c(O)cc(O)cc2O[C@H](c2ccc(O)c(O)c2)[C@H]1O` [Taxifolin] as the compound, how does the remaining activity at 100 µM read?
The remaining activity at 100 µM was 43.2 ± 26%.

How did the remaining activity at 100 µM turn out when `COc1ccc([C@@H]2CC(=O)c3c(O)cc(O)cc3O2)cc1O` [Hesperetin] was run?
Its remaining activity at 100 µM is 5.2 ± 26.9%.

With `COc1cc(O)cc(O)c1C(=O)/C=C/c1ccccc1` [Cardamonin] as the compound, how does the remaining activity at 100 µM read?
Its remaining activity at 100 µM is 73.4 ± 10.8%.

`O=c1c(O)c(-c2ccc(O)cc2)oc2cc(O)cc(O)c12` [Kaempferol] was tested. Which remaining activity at 100 µM did it give?
Its remaining activity at 100 µM is 42.8 ± 1%.

Which remaining activity at 100 µM does the source give for `O=c1cc(-c2ccc(O)cc2)oc2cc(O)cc(O)c12` [Apigenin] here?
Its remaining activity at 100 µM is 25.3 ± 12.5%.
